For one data set, the system named is dogs. In words: Pentobarbital-induced heart failure in anaesthetized dogs, intraduodenal administration. The data set is classed as in vivo. The settings on record: 1 mg/kg I.D.; for Aortic capacity / Bradycardia and hypotension induced by pentobarbital / Inotropic effect: after 20 minutes. An excerpt: In addition to the activity pattern described above the compounds of formula I, in which R1 and R2 both represent hydrogen have a particularly beneficial effect in the treatment of heart failure. The latter activity has been tested using a technique derived from Deitchman and Snyder, Arch.Int. Pharmacodyn. 250, 65 (1981).
After having been anaesthesized dogs under articicial respiration are connected with pieces of apparatus for continuous monitoring the left intraventicular pressure, the dP/dt max, the amplitude of the left ventricular contraction, the aortic capacity, the heart frequency and the arteric pressure.
Heart failure is induced by intravenous administration of pentobarbital at a dose of 20 mg per kg body weight per minute until a decrease of 50% of dP/dt max is obtained after which this level is maintained by pentobarbital administration at a dose of 0.4 mg/kg/min. Ten minutes after the beginning of this heart failure effect the products to be tested are administered. The results are compared with those obtained using Dopamine and Dobutamine as reference compounds.
Then the test was repeated by administering the products intraduodenally (I.D.). Dopamine and Dobutamine were administered at a dose of 10 mg/kg I.D. and the compounds of the invention at a dose of 1 mg/kg.

The subject of data set [1] is mice. In words: Spontaneous motility. The data set is classed as in vivo. The settings on record: Mus musculus, 20 min, read-out: Spontaneous motility, variation; for change in vivo at 25 mg/kg: dose 25 mg.kg^-1. The protocol: (§1) The acute toxicity and central nervous system activity of the compounds of the invention were investigated in mice using various test-models. These tests were carried out in accordance with the procedures summarised below.
Groups of 4 mice prepared as above are placed in circular corridors intersected by infrared beams, making it possible to count the number of movements made by the animals. The number of movements is summed up after 20 minutes and the results are expressed as the percentage variation relative to the group of control animals, which have only received the vehicle (gum arabic/water).

Data set [2] in a line: Acute toxicity (mortality after 24 hours). The conditions noted are these: mouse, in vivo, po. The protocol: as §1
Male mice of the OF1, IFFA, CREDO strain and having an average weight of 22±1 g, receive, by oesophagial intubation, a solution of arabic gum and distilled water (1/2-1/2) containing the compound to be studied, at a rate of 0.25 ml per 20 g of body weight. The symptomatology of the intoxication was observed and the mortality was recorded after 24 hours.

Data set [3] has as its system mice. In words: Hypnotic activity (sleep induction time, sleep time). The data set is classed as in vivo. The method, then: as §1
Mice receive, by intraperitoneal administration, 0.25 ml per 20 g of body weight of a solution consisting of arabic gum and of 0.154M NaCl solution (1/2-1/2) containing 12.5 mg.kg.^-1 of the compound to be studied, and the "sleep induction time"--the time taken for the loss of righting reflex to appear after the animal has been placed in the dorsal decubitus position--and the "sleep time"--the duration of the above loss of reflex--are then noted. For this test, pentobarbital is given as a reference, administered at a dose of 50 mg.kg.^-1.

Setting [4] is: dose 50 mg.kg^-1, relative to control animals, 20 minutes.
Where [5] appears, read: mice, oesophagial intubation, mortality after 24 hours, read-out: Estimated LD 50.
The mark [6] stands for this setting: relative to control animals, 20 minutes.
The mark [7] stands for this setting: pentobarbital reference, 50 mg.kg^-1.

The structures appear in SMILES notation. Where a name gives a salt, the structure may show the parent alone. Read-outs that look alike come from different tables or passages of the source.

Regarding `Cn1c(=O)oc2cc(CCN)ccc21` [Compound 2, 3-Methyl-6-(2-aminoethyl)-benzoxazolinone(hydrochloride)], in the data set with dogs, the “Duration of the effects” value is on record as “at least 60 minutes”; the Aortic capacity entry is listed as “increase of the aortic capacity”; the “Bradycardia and hypotension induced by pentobarbital” value is “recovery of the bradycardia and the hypotension induced by pentobarbital”; the Inotropic effect entry is recorded as “strong positive inotropic effect”.

Take `Cn1c(=O)oc2cc(CCN3CCN(c4cccc(C(F)(F)F)c4)CC3)ccc21` [Compound 3]: the change in vivo at 50 mg/kg with mice [1] (setting [4]) was -97.5%. In data set [2], this compound had an LD50 at 24 h of 1000 mg/kg.

`Cn1c(=O)oc2cc(CCN3CCOCC3)ccc21` [Compound 4]: the change in vivo at 12.5 mg/kg with mice [1] (dose 12.5 mg.kg^-1, relative to control animals, 20 minutes) was -11.9%. The LD50 at 24 h in data set [2] (setting [5]) was 1200 mg/kg.

For `Cn1c(=O)oc2cc(CCN3CCN(c4ncccn4)CC3)ccc21` [Compound 7], the change in vivo at 50 mg/kg with mice [1] (setting [4]) was -69.9%. The LD50 at 24 h in data set [2] stood at 1200 mg/kg.

Take `O=c1[nH]c2ccc(CCN3CCN(c4cccc(C(F)(F)F)c4)CC3)cc2o1` [Compound 8]: the change in vivo at 25 mg/kg in the data set on mice [1] (setting [6]) is -93.5%. In data set [2], the LD50 at 24 h turned out to be 1000 mg/kg.

Consider `COc1ccccc1N1CCN(CCc2ccc3c(c2)oc(=O)n3C)CC1` [Compound 9, 3-Methyl-6-(2-[4-(2-methoxyphenyl)-piperazin-1-yl]-ethyl)-benzoxazolinone], for which the change in vivo at 6.25 mg/kg in the data set with mice [1] is -93.2%. In data set [2] (setting [5]), the LD50 at 24 h was 600 mg/kg. Besides, in the data set with mice [3] (12.5 mg.kg^-1, intraperitoneal), the “Hypnotic activity, sleep induction time” value came out at 18 ± 7.5 min and the “Hypnotic activity, sleep time” value came to 46.2 ± 15 min.

Consider `COc1ccccc1N1CCN(CCc2ccc3[nH]c(=O)oc3c2)CC1` [Compound 10, 6-(2-[4-(2-methoxyphenyl)-piperazin-1-yl]-ethyl)-benzoxazolinone], for which, in the data set with mice [1], the change in vivo at 6.25 mg/kg was -99.3%. In data set [2] (setting [5]), the LD50 at 24 h was 1000 mg/kg. In the data set on mice [3] (12.5 mg.kg^-1, intraperitoneal), the “Hypnotic activity, sleep induction time” value is 18.2 ± 4.3 min and the “Hypnotic activity, sleep time” value came to 86 ± 15 min.

Consider `CNCCc1ccc2[nH]c(=O)oc2c1` [Compound 12], for which the change in vivo at 50 mg/kg in the data set with mice [1] was -28%. In data set [2] (setting [5]), the LD50 at 24 h was 1200 mg/kg.

With `NCCc1ccc2[nH]c(=O)oc2c1` [Compound 15], the change in vivo at 50 mg/kg in the data set on mice [1] was -23.2%. Also, in data set [2] (setting [5]), the LD50 at 24 h was 1200 mg/kg. Further, in the data set with dogs, the Aortic capacity result was “increase of the aortic capacity”; the “Bradycardia and hypotension induced by pentobarbital” value was “recovery of the bradycardia and the hypotension induced by pentobarbital”; the Inotropic effect result is recorded as “strong positive inotropic effect”.

Regarding `Cn1c(=O)oc2cc(CCNC3CC3)ccc21` [Compound 16], in the data set on mice [1], the change in vivo at 50 mg/kg was -34.4%. The LD50 at 24 h in data set [2] (setting [5]) was 600 mg/kg.

`O=c1[nH]c2ccc(CCN3CCN(c4ncccn4)CC3)cc2o1` [Compound 17]: the change in vivo at 25 mg/kg with mice [1] (setting [6]) was -62.8%. In addition, the LD50 at 24 h in data set [2] was determined as 480 mg/kg.

Regarding `Cn1c(=O)oc2cc(CCN3CCN(c4ccc(F)cc4)CC3)ccc21` [Compound 18, 3-Methyl-6-(-[4-(4-fluorophenyl)-piperazin-1-yl]-ethyl)-benzoxazolinone], the change in vivo at 6.25 mg/kg in the data set on mice [1] is -98.8%. The LD50 at 24 h in data set [2] (setting [5]) was 1000 mg/kg. Moreover, in the data set with mice [3] (12.5 mg.kg^-1, intraperitoneal), the “Hypnotic activity, sleep induction time” value came out at 26.9 ± 6 min and the “Hypnotic activity, sleep time” value came to 132 ± 25 min.

For `O=c1[nH]c2ccc(CCN3CCN(c4ccc(F)cc4)CC3)cc2o1` [Compound 19], the change in vivo at 6.25 mg/kg in the data set with mice [1] was -97%. The LD50 at 24 h in data set [2] (setting [5]) was 1000 mg/kg. Moreover, in the data set on mice [3] (12.5 mg.kg^-1, intraperitoneal), the “Hypnotic activity (in words)” value is given as “strong hypnotic activity”; the “Hypnotic activity, sleep induction time” value was determined as 15.1 ± 2 min; the “Hypnotic activity, sleep time” value was determined as 78 ± 16 min.

As for `CCCC(C)C1(CC)C(=O)NC(=O)NC1=O` (stereo not drawn) [pentobarbital, reference compound], in the data set with mice [3] (setting [7]), the “Hypnotic activity, sleep induction time (reference)” value was determined as 9.5 ± 2.2 min and the “Hypnotic activity, sleep time (reference)” value stood at 48 ± 7 min.
